Our source for the EC50 values is patent US9975878B2, “Substituted triazine BMI-1 inhibitors” (PTC Therapeutics, Inc., priority 2013, dated 2018).

The structures appear in SMILES notation.

A word on the EC50: it is the concentration at which the effect is half-maximal. Read a low EC50 as a more potent agent.

For this test, the system named is Bmi-1 protein. Description: Sandwich ELISA Assay: Bmi-1 protein level in HT-1080 cells treated with test compounds. Format: cell-based. The method in brief: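 HT-1080 cells exposed to compounds (final DMSO 0.5%) for 40-48 h at 37° C, 5% CO2, then lysed. Bmi-1 quantified by sandwich ELISA (mouse anti-Bmi-1 capture, rabbit anti-Bmi-1 detection, HRP anti-rabbit, TMB), read at OD450 with OD570 reference, against recombinant GST-Bmi-1 standard curve (0-8000 pg/mL).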
On the technique in general: ELISA stands for enzyme-linked immunosorbent assay.
Compound `Cc1nn2ccccc2c1-c1nc(N)nc(Nc2ccc(OC(F)F)cc2)n1` [Cpd 123, N-[4-(difluoromethoxy)phenyl]-6-(2-methylpyrazolo[1,5-a]pyridin-3-yl)-1,3,5-triazine-2,4-diamine] yielded an EC50 of 100 to 3000 nM.
The compound `CCc1nc2c(F)cccc2n1-c1nc(N)nc(Nc2ccc(OC)cc2)n1` [Cpd 212, 6-(2-ethyl-4-fluoro-1H-benzimidazol-1-yl)-N-(4-methoxyphenyl)-1,3,5-triazine-2,4-diamine] registered an EC50 of 1 to 10 nM.
For `Cc1nc2ccccc2n1-c1nncc(Nc2ccc(C(F)(F)F)cc2)n1` [Cpd 94, 3-(2-methyl-1H-benzimidazol-1-yl)-N-[4-(trifluoromethyl)phenyl]-1,2,4-triazin-5-amine] the value was 100 to 3000 nM; for `Cc1nc2ccccc2n1-c1nc(NCCO)nc(Nc2ccc3c(c2)OCO3)n1` [Cpd 19, 2-{[4-(1,3-benzodioxol-5-ylamino)-6-(2-methyl-1H-benzimidazol-1-yl)-1,3,5-triazin-2-yl]amino}ethanol], 100 to 3000 nM; for `CSc1nc2ccccc2n1-c1nc(N)nc(Nc2ccc(OC(F)F)cc2)n1` [Cpd 121, N-[4-(difluoromethoxy)phenyl]-6-[2-(methylsulfanyl)-1H-benzimidazol-1-yl]-1,3,5-triazine-2,4-diamine], 100 to 3000 nM.
As for `[O-][n+]1cc(Nc2ccc(C(F)(F)F)cc2)nc(-n2c(C3CC3)nc3ccccc32)n1` [Cpd 141, 3-(2-cyclopropyl-1H-benzimidazol-1-yl)-N-[4-(trifluoromethyl)phenyl]-1,2,4-triazin-5-amine 1-oxide], the EC50 was 10 to 100 nM.
The figure for `Cc1nc2ccc(F)cc2n1-c1cnnc(Nc2ccc(OC(F)F)cc2)n1` [Cpd 136, N-[4-(difluoromethoxy)phenyl]-5-(6-fluoro-2-methyl-1H-benzimidazol-1-yl)-1,2,4-triazin-3-amine] is 10 to 100 nM; for `Cc1nc2ccc(F)cc2n1-c1nc(N)nc(Nc2ccc(C(F)(F)F)nc2)n1` [Cpd 53, 6-(6-fluoro-2-methyl-1H-benzimidazol-1-yl)-N-[6-(trifluoromethyl)pyridin-3-yl]-1,3,5-triazine-2,4-diamine] it is 10 to 100 nM; for `Cc1nc2c(F)cccc2n1-c1nc(N)nc(Nc2ccc(Cl)cc2)n1` [Cpd 181, N-(4-chlorophenyl)-6-(4-fluoro-2-methyl-1H-benzimidazol-1-yl)-1,3,5-triazine-2,4-diamine] it is 100 to 3000 nM.
The figure for `Nc1nc(Nc2ccc(OC(F)F)c(F)c2)nc(-n2c(C3CC3)nc3cc(F)ccc32)n1` [Cpd 67, 6-(2-cyclopropyl-5-fluoro-1H-benzimidazol-1-yl)-N-[4-(difluoromethoxy)-3-fluorophenyl]-1,3,5-triazine-2,4-diamine] is 100 to 3000 nM; for `CCc1nc2cc(F)ccc2n1-c1nc(N)nc(Nc2ccc(OC(F)F)c(F)c2)n1` [Cpd 60, N-[4-(difluoromethoxy)-3-fluorophenyl]-6-(2-ethyl-5-fluoro-1H-benzimidazol-1-yl)-1,3,5-triazine-2,4-diamine] it is 10 to 100 nM; for `Nc1nc(Nc2ccc(C(F)(F)F)cc2)nc(-c2c(C(F)(F)F)nc3ccccn23)n1` [Cpd 61, 6-[2-(trifluoromethyl)imidazo[1,2-a]pyridin-3-yl]-N-[4-(trifluoromethyl)phenyl]-1,3,5-triazine-2,4-diamine] it is 10 to 100 nM.
Take `Cc1nc2ccccc2n1-c1nnc(N)c(Nc2ccc(C(F)(F)F)cc2)n1` [Cpd 143, 3-(2-methyl-1H-benzimidazol-1-yl)-N^5-[4-(trifluoromethyl)phenyl]-1,2,4-triazine-5,6-diamine]: the EC50 is 100 to 3000 nM.
In the case of `CCc1nc2ccc(F)cc2n1-c1nc(N)nc(Nc2ccc(OC(F)F)cc2)n1` [Cpd 56, N-[4-(difluoromethoxy)phenyl]-6-(2-ethyl-6-fluoro-1H-benzimidazol-1-yl)-1,3,5-triazine-2,4-diamine], the EC50 is 10 to 100 nM.
Take `Nc1nc(Nc2ccc(OC(F)F)nc2)nc(-n2c(C(F)F)nc3ccccc32)n1` [Cpd 105, N-[6-(difluoromethoxy)pyridin-3-yl]-6-[2-(difluoromethyl)-1H-benzimidazol-1-yl]-1,3,5-triazine-2,4-diamine]: the EC50 was in the range of 10 to 100 nM.
For `Nc1nc(Nc2ccc(C(F)(F)F)cc2)nc(-n2c(CO)nc3ccccc32)n1` [Cpd 118, [1-(4-amino-6-{[4-(trifluoromethyl)phenyl]amino}-1,3,5-triazin-2-yl)-1H-benzimidazol-2-yl]methanol] the value was 100 to 3000 nM.
Turning to `CCc1nc2c(F)cc(F)cc2n1-c1nc(N)nc(Nc2ccc(C)cc2)n1` [Cpd 189, 6-(2-ethyl-4,6-difluoro-1H-benzimidazol-1-yl)-N-(4-methylphenyl)-1,3,5-triazine-2,4-diamine], the EC50 lay within 10 to 100 nM.
For the compound `Nc1nc(Nc2ccc(C(F)(F)F)cc2)nc(-n2c(C(F)F)nc3cc(F)c(F)cc32)n1` [Cpd 114, 6-[2-(difluoromethyl)-5,6-difluoro-1H-benzimidazol-1-yl]-N-[4-(trifluoromethyl)phenyl]-1,3,5-triazine-2,4-diamine], the EC50 fell in the range of 100 to 3000 nM.
For `CCc1nc2ccc(F)cc2n1-c1nc(N)nc(Nc2ccc(C)cc2)n1` [Cpd 169, 6-(2-ethyl-6-fluoro-1H-benzimidazol-1-yl)-N-(4-methylphenyl)-1,3,5-triazine-2,4-diamine], the concentration giving a half-maximal response (EC50) fell in the range of 1 to 10 nM.
On to `Nc1nc(Nc2ccc(C(F)(F)F)cc2)nc(-n2c(C3CC3)nc3ccc(F)cc32)n1` [Cpd 62, 6-(2-cyclopropyl-6-fluoro-1H-benzimidazol-1-yl)-N-[4-(trifluoromethyl)phenyl]-1,3,5-triazine-2,4-diamine], for which the EC50 lay within 10 to 100 nM.
For `Cc1nc2ccccc2n1-c1nc(N)nc(Nc2ccc(OC(F)F)c(F)c2)n1` [Cpd 6, N-[4-(difluoromethoxy)-3-fluorophenyl]-6-(2-methyl-1H-benzimidazol-1-yl)-1,3,5-triazine-2,4-diamine] the value was 10 to 100 nM; for `Cc1ccc(Nc2nc(N)nc(-n3c(C)nc4ccccc43)n2)cc1` [Cpd 148, 6-(2-methyl-1H-benzimidazol-1-yl)-N-(4-methylphenyl)-1,3,5-triazine-2,4-diamine], 1 to 10 nM.
Turning to `Nc1nc(Nc2ccc(OC(F)(F)F)cc2)nc(-n2c(C3CC3)nc3ccccc32)n1` [Cpd 225, 6-(2-cyclopropyl-1H-benzimidazol-1-yl)-N-[4-(trifluoromethoxy)phenyl]-1,3,5-triazine-2,4-diamine], the concentration for a half-maximal effect (EC50) lay in the range of 100 to 3000 nM.
Compound `Cc1nc2c(F)cc(F)cc2n1-c1nc(N)nc(Nc2ccc(OC(F)F)c(F)c2)n1` [Cpd 48, N-[4-(difluoromethoxy)-3-fluorophenyl]-6-(4,6-difluoro-2-methyl-1H-benzimidazol-1-yl)-1,3,5-triazine-2,4-diamine] showed an EC50 of 10 to 100 nM.
Compound `CCc1nc2ccc(F)cc2n1-c1nc(N)nc(Nc2ccc(Br)cc2)n1` [Cpd 223, N-(4-bromophenyl)-6-(2-ethyl-6-fluoro-1H-benzimidazol-1-yl)-1,3,5-triazine-2,4-diamine] came in with an EC50 of 10 to 100 nM.
The figure for `Cc1nc2cc(F)c(F)cc2n1-c1nc(N)nc(Nc2ccc(Br)cc2)n1` [Cpd 210, N-(4-bromophenyl)-6-(5,6-difluoro-2-methyl-1H-benzimidazol-1-yl)-1,3,5-triazine-2,4-diamine] is 10 to 100 nM; for `COc1ccc(Nc2nc(N)nc(-n3c(C4CC4)nc4ccc(F)cc43)n2)cc1` [Cpd 176, 6-(2-cyclopropyl-6-fluoro-1H-benzimidazol-1-yl)-N-(4-methoxyphenyl)-1,3,5-triazine-2,4-diamine] it is 10 to 100 nM; for `Fc1ccc2nc(C3CC3)n(-c3ncnc(Nc4ccc(C(F)(F)F)cc4)n3)c2c1` [Cpd 76, 4-(2-cyclopropyl-6-fluoro-1H-benzimidazol-1-yl)-N-[4-(trifluoromethyl)phenyl]-1,3,5-triazin-2-amine] it is 100 to 3000 nM.
Turning to `CCc1nc2ccccc2n1-c1cnnc(Nc2ccc(OC(F)F)cc2)n1` [Cpd 203, N-[4-(difluoromethoxy)phenyl]-5-(2-ethyl-1H-benzimidazol-1-yl)-1,2,4-triazin-3-amine], the concentration giving a half-maximal response (EC50) was 10 to 100 nM.
`CCc1nc2ccccc2n1-c1cnnc(Nc2ccc(C)cc2)n1` [Cpd 218, 5-(2-ethyl-1H-benzimidazol-1-yl)-N-(4-methylphenyl)-1,2,4-triazin-3-amine] yielded an EC50 of 1 to 10 nM.
The compound `CCc1nc2ccccc2n1-c1nc(N)nc(Nc2ccc(Cl)c(F)c2)n1` [Cpd 198, N-(4-chloro-3-fluorophenyl)-6-(2-ethyl-1H-benzimidazol-1-yl)-1,3,5-triazine-2,4-diamine] had a 50% effective concentration (EC50) of 10 to 100 nM.
With `Cc1ccc(Nc2nc(N)nc(-n3c(C4CC4)nc4cc(F)ccc43)n2)cc1` [Cpd 192, 6-(2-cyclopropyl-5-fluoro-1H-benzimidazol-1-yl)-N-(4-methylphenyl)-1,3,5-triazine-2,4-diamine], the EC50 lay within 1 to 10 nM.
Regarding `CCc1nc2c(F)cc(F)cc2n1-c1nc(N)nc(Nc2ccc(C(F)(F)F)cc2)n1` [Cpd 45, 6-(2-ethyl-4,6-difluoro-1H-benzimidazol-1-yl)-N-[4-(trifluoromethyl)phenyl]-1,3,5-triazine-2,4-diamine], the EC50 was 10 to 100 nM.
For `Cc1nc2ccccc2n1-c1cnnc(Nc2ccc(C(F)(F)F)cc2)n1` [Cpd 112, 5-(2-methyl-1H-benzimidazol-1-yl)-N-[4-(trifluoromethyl)phenyl]-1,2,4-triazin-3-amine] the value was 100 to 3000 nM; for `Cc1ccc(Nc2nc(N)nc(-n3c(C4CC4)nc4ccccc43)n2)cc1` [Cpd 155, 6-(2-cyclopropyl-1H-benzimidazol-1-yl)-N-(4-methylphenyl)-1,3,5-triazine-2,4-diamine], 1 to 10 nM; for `Cc1nc2ccccc2n1-c1nc(N)nc(Nc2ccc(Cl)c(F)c2)n1` [Cpd 197, N-(4-chloro-3-fluorophenyl)-6-(2-methyl-1H-benzimidazol-1-yl)-1,3,5-triazine-2,4-diamine], 100 to 3000 nM.
The figure for `COc1ccc(Nc2nc(N)nc(-n3c(C4CC4)nc4ccccc43)n2)cc1` [Cpd 153, 6-(2-cyclopropyl-1H-benzimidazol-1-yl)-N-(4-methoxyphenyl)-1,3,5-triazine-2,4-diamine] is 1 to 10 nM.
